Data from patent US8765746B2 (Millennium Pharmaceuticals, Inc., priority 2010, dated 2014).

Columns and labels:
Type in all cases: biochemical
PI3Kalpha = target: T1, PI3Kalpha (Homo sapiens, UniProt P42336); assay: Human PI3Kα enzyme assay (HTRF); details: for inhibition at 1.11 µM: read-out: PI3Kalpha % inh
T1 construct: His (N); host or cells: SF9 insect cells (baculovirus)
In short: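 His-tagged p110α co-expressed with p85 in Sf9 cells was reacted for 30 min at room temperature in pH 7.00 Hepes buffer with 10 mM MgCl2. Addition solutions held 25 uM ATP, 3.5 uM di-C8 PI(4,5)P2 and 0.4875 nM enzyme. The reaction was quenched with EDTA/biotin-PIP3 and detected by HTRF (GST-GRP-1 PH domain, streptavidin-XL, Eu anti-GST) after 1 h.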

PI3Kbeta = target: T2, PI3Kbeta (Homo sapiens, UniProt P42338); assay: Human PI3K beta enzyme assay (HTRF, as for PI3K alpha); details: for IC50: read-out: IC50 (inhibit PI3Kbeta); for inhibition at 1.11 µM: read-out: PI3Kbeta % inh
T2 construct: His (N); host or cells: SF9 insect cells (baculovirus)
In short: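 N-His p110β/δ co-expressed with untagged p85 in Sf9, p110γ alone. Enzyme 5.25 nM (β), 0.75 nM (δ), 5 nM (γ), with ATP 25 uM and di-C8 PI(4,5)P2 3.5 uM (added-solution levels), pH 7.00, 30 min RT. HTRF read-out: biotin-PIP3, GST-GRP-1 PH domain, Eu anti-GST, streptavidin-XL.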

PI3Kgamma = target: T3, PI3Kgamma (Homo sapiens, UniProt P48736); assay: Human PI3K gamma enzyme assay (HTRF, as for PI3K alpha); details: for inhibition at 1.11 µM: read-out: PI3Kgamma % inh
T3 construct: His (N); host or cells: SF9 insect cells (baculovirus)
Text: (§1) The catalytic subunits of PI3Ks are cloned into either pDEST8(p110 alpha) or pDEST10(p110beta, p110delta, and p110gamma) as N-terminal His tagged fusion proteins using the Gateway system (Invitrogen, catalog#11804-010 for pDEST8 and 11806-015 for pDEST10). The sequences are verified before recombinant protein expression using the Baculovirus Expression System with Gateway® Technology. The accession numbers for the subunits are as follows:
(§2) The regulatory subunits of PI3Ks are cloned into pDEST8 as un-tagged protein using the Gateway system (Catalog#11804-010). The sequences are verified before recombinant protein expression using the Baculovirus Expression System with Gateway® Technology. The accession numbers for the subunits are as follows:
(§3) For expression of the p110 complexes, the p85 (MOI of 4) is co-infected with p110 alpha, beta, and delta respectively (1MOI) in SF9 cells and harvested at 60 hours post co-infection. P110 gamma was infected at 1 MOI and harvested at 60 hours post infection.
(§4) For purification, PI3Ks are purified by Ni-NTA Agarose (Qiagen #30250) followed by Mono Q 10/100 GL (Ge Healthcare #17-5167-01). VPS34 is purified by Glutathione Sepharose 4 Fast Flow (GE Healthcare #17-5132-03) followed by HiTrap Q (GE Healthcare #17-1153-01).
(§5) 0.5 uL compounds in DMSO are added to wells of a 384 well microtitre plate (Corning 3575). At room temperature: 10 ul PI3K reaction buffer (50 mM Hepes, 5 mM DTT, 150 mM NaCl, 10 mM beta-glycerophosphate, 10 mM MgCl2, 0.25 mM sodium cholate and 0.001% CHAPS, pH 7.00) containing ATP (25 uM, Promega) is added followed immediately by 10 ul PI3K reaction buffer containing di-C8 PI(4,5)P2 (3.5 uM, CellSignals) and PI3Kalpha (0.4875 nM, Millennium Protein Sciences Group) and the mixture is incubated with shaking at room temperature for 30 minutes. Then 5 ul PI3K stop mix (50 mM Hepes, 5 mM DTT, 150 mM NaCl, 0.01% Tween-20, 15 mM EDTA and 25 nM biotin-PI(3,4,5)P3 (Echelon) is added to quench the reaction followed immediately by addition of 5 ul HTRF detection mix (50 mM Hepes, 5 mM DTT, 150 mM NaCl, 0.01% Tween-20, 40 mM KF, 10 nM GST:GRP-1 PH domain (Millennium Protein Sciences Group), 15 nM Streptavidin-XL (CisBio) and 0.375 nM anti-GST Eu++ antibody (CisBio) at pH 7.00). The plates are then incubated for 1 hour at room temperature with shaking and then read on a BMG PheraStar Plus reader.
(§6) 2) Human PI3K beta, delta and gamma isoforms are tested using the procedure described for PI3K alpha above but with the following changes: PI3K beta (5.25 nM), PI3K delta (0.75 nM) and PI3K gamma (5 nM). All isoforms supplied by Millennium Protein Science Group.

PI3Kdelta = target: T4, PI3Kdelta (Homo sapiens, UniProt O00329); assay: Human PI3K delta enzyme assay (HTRF, as for PI3K alpha); details: for inhibition at 1.11 µM: read-out: PI3Kdelta % inh
T4 construct: His (N); host or cells: SF9 insect cells (baculovirus)
Text: as §1, §2, §3, §4, §5, §6

VPS34 = target: T5, VPS34 (Homo sapiens, UniProt Q8NEB9); assay: Human VPS34 enzyme assay (Adapta Universal Kinase Assay); details: for inhibition at 1.11 µM: 1 h, read-out: VPS34 % ihn
T5 construct: GST (N); host or cells: SF9 insect cells (baculovirus)
Experimental: VPS34 (accession number GB:BC033004) is cloned into pDEST20-Thombin as N-terminal GST tagged fusion proteins using the Gateway system (Invitrogen, catalog#11804-013). The sequences are verified before recombinant protein expression using the Baculovirus Expression System with Gateway® Technology.
For expression VPS34 was infected at 1MOI in SF9 cells and harvested 72 hours post infection.
For purification, VPS34 is purified by Glutathione Sepharose 4 Fast Flow (GE Healthcare #17-5132-03) followed by HiTrap Q (GE Healthcare #17-1153-01).
3) VPS34 is assayed using Adapta™ Universal Kinase Assay Kit (Invitrogen).
4) Human VPS34 enzyme assay method
100 mL compounds in DMSO are added to wells of a 384 well microtitre plate (Greiner 780076). At room temperature: 5 ul VPS34 reaction buffer (Invitrogen Assay Buffer Q (diluted 1 in 5 with nanopure water) plus 2 mM DTT and 2 mM MnCl2) containing ATP (20 uM, Promega) and 200 uM PI-PS substrate (Invitrogen PV5122) is added followed immediately by 5 ul VPS34 reaction buffer (as above) containing VPS34 (5 nM, Millennium Protein Sciences Group) and the mixture is incubated with shaking at room temperature for 1 hour. Then 5 ul VPS34 stop-detect mix (as per Invitrogen Adapta Assay kit (PV5009) instructions (contains kinase quench buffer, TR-FRET buffer, Adapta Eu anti-ADP antibody and Alexa Fluor 647 ADP tracer)) is added to quench the reaction. The plates are then incubated for 30 minutes at room temperature with shaking and then read on a BMG PheraStar Plus reader.

T3 sequence (P48736 whole entry): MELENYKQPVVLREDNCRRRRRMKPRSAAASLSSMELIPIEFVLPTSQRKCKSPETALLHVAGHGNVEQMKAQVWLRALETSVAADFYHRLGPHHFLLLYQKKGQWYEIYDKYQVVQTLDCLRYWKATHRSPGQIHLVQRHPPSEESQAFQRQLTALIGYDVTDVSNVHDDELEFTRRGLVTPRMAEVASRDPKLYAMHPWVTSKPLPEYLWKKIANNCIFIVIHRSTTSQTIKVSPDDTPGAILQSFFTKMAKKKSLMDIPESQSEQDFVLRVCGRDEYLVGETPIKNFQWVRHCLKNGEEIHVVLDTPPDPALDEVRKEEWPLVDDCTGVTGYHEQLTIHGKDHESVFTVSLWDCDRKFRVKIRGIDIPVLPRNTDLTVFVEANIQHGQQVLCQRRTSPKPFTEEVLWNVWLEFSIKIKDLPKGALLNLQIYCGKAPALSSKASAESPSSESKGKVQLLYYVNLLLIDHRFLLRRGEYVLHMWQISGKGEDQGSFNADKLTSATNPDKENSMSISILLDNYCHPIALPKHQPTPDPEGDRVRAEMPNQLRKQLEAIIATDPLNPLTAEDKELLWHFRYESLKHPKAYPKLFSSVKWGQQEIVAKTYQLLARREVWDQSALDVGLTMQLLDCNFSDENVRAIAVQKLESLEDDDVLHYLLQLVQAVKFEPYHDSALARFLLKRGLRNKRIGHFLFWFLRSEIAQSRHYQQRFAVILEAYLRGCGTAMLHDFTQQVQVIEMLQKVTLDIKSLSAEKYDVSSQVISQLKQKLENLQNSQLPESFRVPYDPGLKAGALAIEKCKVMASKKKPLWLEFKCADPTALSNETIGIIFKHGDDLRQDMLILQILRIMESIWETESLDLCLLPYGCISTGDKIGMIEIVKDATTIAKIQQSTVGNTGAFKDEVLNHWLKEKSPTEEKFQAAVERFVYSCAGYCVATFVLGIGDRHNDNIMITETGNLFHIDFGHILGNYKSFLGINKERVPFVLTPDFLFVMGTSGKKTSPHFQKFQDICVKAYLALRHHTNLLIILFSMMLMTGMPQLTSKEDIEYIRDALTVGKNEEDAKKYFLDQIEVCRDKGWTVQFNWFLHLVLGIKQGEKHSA
T2 sequence (P42338 whole entry): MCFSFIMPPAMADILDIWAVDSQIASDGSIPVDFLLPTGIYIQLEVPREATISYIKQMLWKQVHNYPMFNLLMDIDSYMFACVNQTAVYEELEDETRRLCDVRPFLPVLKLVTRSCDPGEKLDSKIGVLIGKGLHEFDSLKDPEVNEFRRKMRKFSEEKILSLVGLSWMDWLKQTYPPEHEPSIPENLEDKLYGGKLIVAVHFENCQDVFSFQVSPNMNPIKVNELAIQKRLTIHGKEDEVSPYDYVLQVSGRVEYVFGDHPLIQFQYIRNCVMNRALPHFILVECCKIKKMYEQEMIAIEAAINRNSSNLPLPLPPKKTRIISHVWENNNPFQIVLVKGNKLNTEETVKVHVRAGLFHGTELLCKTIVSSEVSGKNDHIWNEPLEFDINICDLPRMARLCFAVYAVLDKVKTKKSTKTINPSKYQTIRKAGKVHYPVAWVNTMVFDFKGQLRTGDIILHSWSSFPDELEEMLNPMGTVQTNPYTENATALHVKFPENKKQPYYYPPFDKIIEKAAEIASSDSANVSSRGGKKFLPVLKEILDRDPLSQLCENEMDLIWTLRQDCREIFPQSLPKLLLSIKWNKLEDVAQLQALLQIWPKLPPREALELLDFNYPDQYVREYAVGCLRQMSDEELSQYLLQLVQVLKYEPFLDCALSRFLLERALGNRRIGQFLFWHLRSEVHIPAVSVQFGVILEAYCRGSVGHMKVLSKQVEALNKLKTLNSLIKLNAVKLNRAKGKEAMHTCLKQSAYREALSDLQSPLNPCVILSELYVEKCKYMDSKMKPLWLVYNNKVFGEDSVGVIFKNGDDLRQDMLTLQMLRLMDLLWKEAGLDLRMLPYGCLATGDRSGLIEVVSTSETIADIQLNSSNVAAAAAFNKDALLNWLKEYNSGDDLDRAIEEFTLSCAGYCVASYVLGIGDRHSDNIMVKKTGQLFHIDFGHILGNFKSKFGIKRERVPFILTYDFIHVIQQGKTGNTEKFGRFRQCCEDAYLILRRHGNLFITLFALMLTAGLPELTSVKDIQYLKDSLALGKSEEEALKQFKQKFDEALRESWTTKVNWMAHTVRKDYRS
T2 sequence (P27986 whole entry partner): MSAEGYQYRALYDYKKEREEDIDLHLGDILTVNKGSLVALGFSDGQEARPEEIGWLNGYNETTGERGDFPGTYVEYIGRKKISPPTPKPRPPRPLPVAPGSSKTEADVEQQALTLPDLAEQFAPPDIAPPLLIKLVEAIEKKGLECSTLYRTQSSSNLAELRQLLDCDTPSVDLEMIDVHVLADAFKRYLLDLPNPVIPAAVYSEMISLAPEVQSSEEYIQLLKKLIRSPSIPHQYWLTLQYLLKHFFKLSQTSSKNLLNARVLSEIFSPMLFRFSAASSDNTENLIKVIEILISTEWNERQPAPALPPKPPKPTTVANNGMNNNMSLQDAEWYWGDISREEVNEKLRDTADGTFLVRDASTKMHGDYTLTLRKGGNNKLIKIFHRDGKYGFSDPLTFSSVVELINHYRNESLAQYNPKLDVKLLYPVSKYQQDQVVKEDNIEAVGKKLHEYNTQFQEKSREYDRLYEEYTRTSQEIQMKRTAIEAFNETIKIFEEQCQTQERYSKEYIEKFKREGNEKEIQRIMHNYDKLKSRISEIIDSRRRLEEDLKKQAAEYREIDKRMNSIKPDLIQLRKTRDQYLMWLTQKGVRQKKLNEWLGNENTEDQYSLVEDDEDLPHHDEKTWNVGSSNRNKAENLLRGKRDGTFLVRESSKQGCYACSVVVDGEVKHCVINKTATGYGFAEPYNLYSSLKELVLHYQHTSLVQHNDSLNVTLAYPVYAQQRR
T1 sequence (P42336 whole entry): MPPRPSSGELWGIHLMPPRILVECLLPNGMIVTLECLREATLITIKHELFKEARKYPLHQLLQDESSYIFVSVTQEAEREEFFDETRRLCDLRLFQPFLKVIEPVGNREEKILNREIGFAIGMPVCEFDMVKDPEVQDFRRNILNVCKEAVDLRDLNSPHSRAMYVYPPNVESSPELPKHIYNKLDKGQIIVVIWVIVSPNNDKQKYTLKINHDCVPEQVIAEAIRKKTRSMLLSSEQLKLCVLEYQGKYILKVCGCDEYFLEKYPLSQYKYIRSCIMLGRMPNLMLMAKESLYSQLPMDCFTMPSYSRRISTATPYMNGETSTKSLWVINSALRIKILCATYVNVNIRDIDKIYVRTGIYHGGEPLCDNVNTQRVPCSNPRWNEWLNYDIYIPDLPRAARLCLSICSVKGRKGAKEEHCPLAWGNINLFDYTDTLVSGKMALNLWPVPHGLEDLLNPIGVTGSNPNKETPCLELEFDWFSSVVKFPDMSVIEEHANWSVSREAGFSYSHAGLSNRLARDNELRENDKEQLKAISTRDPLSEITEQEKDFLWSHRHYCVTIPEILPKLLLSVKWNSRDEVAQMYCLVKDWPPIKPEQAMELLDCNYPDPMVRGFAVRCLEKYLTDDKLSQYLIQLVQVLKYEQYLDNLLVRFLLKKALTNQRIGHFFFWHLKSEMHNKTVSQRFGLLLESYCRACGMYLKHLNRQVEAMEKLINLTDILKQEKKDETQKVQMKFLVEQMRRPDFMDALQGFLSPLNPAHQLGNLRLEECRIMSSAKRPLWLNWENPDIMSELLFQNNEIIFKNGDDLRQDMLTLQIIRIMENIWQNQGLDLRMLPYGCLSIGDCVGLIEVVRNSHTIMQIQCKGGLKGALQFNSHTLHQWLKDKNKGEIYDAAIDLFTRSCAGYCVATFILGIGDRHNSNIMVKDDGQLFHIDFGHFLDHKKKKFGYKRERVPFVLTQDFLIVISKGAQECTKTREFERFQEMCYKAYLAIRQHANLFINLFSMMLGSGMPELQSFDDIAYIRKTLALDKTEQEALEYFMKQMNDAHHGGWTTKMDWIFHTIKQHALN
T1 sequence (P27986 whole entry partner): as the sequence (P27986 whole entry partner) above
T4 sequence (O00329 whole entry): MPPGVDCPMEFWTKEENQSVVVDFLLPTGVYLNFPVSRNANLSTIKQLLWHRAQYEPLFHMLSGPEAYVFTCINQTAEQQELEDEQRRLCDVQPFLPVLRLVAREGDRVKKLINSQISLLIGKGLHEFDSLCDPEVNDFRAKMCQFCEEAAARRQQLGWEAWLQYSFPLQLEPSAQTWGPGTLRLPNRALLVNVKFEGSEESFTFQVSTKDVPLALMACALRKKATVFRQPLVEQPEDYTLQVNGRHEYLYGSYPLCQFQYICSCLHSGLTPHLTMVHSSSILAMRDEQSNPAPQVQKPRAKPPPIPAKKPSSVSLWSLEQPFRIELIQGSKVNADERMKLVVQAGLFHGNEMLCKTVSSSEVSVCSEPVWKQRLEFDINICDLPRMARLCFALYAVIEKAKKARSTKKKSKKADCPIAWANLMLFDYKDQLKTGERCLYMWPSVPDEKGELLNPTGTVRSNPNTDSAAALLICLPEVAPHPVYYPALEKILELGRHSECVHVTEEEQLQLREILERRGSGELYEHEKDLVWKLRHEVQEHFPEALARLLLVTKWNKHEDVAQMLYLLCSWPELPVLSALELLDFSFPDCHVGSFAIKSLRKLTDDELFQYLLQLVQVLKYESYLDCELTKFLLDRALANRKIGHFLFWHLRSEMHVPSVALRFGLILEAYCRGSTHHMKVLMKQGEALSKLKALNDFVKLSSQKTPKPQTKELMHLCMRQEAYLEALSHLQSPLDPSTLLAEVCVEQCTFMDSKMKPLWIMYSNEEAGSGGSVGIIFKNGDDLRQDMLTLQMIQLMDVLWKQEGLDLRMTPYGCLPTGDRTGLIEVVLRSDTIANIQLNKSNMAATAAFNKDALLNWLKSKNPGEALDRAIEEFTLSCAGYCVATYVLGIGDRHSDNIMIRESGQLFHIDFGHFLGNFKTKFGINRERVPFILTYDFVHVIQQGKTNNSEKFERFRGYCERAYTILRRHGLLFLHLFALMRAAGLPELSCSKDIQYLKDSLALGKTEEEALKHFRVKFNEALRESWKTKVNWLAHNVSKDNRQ
T4 sequence (P27986 whole entry partner): as the sequence (P27986 whole entry partner) above

Row | PI3Kalpha % inh (PI3Kalpha; at 1.11 μM) [%] | PI3Kbeta % inh (PI3Kbeta; at 1.11 μM) [%] | IC50 (PI3Kbeta) [nM] | PI3Kgamma % inh (PI3Kgamma; at 1.11 μM) [%] | PI3Kdelta % inh (PI3Kdelta; at 1.11 μM) [%] | VPS34 % ihn (VPS34; at 1.11 μM) [%] | inhibition at 1.11 µM (PI3Kalpha) [%] | inhibition at 1.11 µM (PI3Kbeta; at 1.11 μM) [%] | inhibition at 1.11 µM (PI3Kgamma) [%] | inhibition at 1.11 µM (PI3Kdelta) [%] | inhibition at 1.11 µM (VPS34) [%] | Compound
1 | 3.700 | 69.800 | 100 to 1000 | 4.500 | 31.200 | 10.900 |  |  |  |  |  | O=C1NCCC(c2ccc(Cl)cc2)c2cc(-c3ccncc3)sc21 (single isomer, unassigned) [Compound 25, 4-(4-chlorophenyl)-2-pyridin-4-yl-4,5,6,7-tetrahydro-8H-thieno[2,3-c]azepin-8-one]
2 |  |  | < 100 |  |  |  | 49.8 | 100 | 63.4 | 103 | 29.3 | CC(=O)Nc1cc(-c2cc3c(s2)C(=O)NCCC3c2ccc(Cl)cc2)ccn1 (centres unmarked) [Compound 1, N-{4-[4-(4-chlorophenyl)-8-oxo-5,6,7,8-tetrahydro-4H-thieno[2,3-c]azepin-2-yl]pyridin-2-yl}acetamide]
3 |  |  | < 100 |  |  |  | 27 | 97.9 | 14 | 70.7 | 10.1 | Clc1ccc(C2CCc3cn[nH]c3-c3sc(-c4ccncc4)cc32)cc1 (centres unmarked) [Compound 6, 6-(4-chlorophenyl)-8-pyridin-4-yl-1,4,5,6-tetrahydrothieno[3′,2′:6,7]cyclohepta[1,2-c]pyrazole]
4 |  |  | 100 to 1000 |  |  |  | 20.5 | 64.6 | 6.5 | 91.3 | 9.6 | CC(=O)Nc1cc(-c2cc3c(s2)C(=O)CCC3c2ccc(Cl)cc2)ccn1 (centres unmarked) [Compound 7, N-{4-[4-(4-chlorophenyl)-7-oxo-4,5,6,7-tetrahydro-1-benzothien-2-yl]pyridin-2-yl}acetamide]
5 |  |  | 100 to 1000 |  |  |  | 0.2 | 71 | 6.7 | 32.4 | 0.1 | CC1(C)CC(=O)c2sc(-c3ccncc3)cc2C1c1ccc(Cl)cc1 (centres unmarked) [Compound 10, 4-(4-chlorophenyl)-5,5-dimethyl-2-pyridin-4-yl-5,6-dihydro-1-benzothiophen-7(4H)-one]
6 |  |  | 100 to 1000 |  |  |  | 36 | 71.6 | 5.2 | 60.3 | -4.2 | Cc1nn2ccccc2c1-c1nc2c(s1)NC(=O)CCC2c1ccc(Cl)cc1 (centres unmarked) [Compound 11, 8-(4-chlorophenyl)-2-(2-methylpyrazolo[1,5-a]pyridin-3-yl)-4,6,7,8-tetrahydro-5H-[1,3]thiazolo[5,4-b]azepin-5-one]
7 |  |  | 100 to 1000 |  |  |  | 9.4 | 73.2 | 31 | 69 | -6 | Clc1ccc(C2Cc3cn[nH]c3-c3sc(-c4ccncc4)cc32)cc1 (centres unmarked) [Compound 12, 5-(4-chlorophenyl)-7-pyridin-4-yl-4,5-dihydro-1H-thieno[3,2-g]indazole]
8 |  |  | 100 to 1000 |  |  |  | 3.1 | 65 | 4 | 26.4 | 2 | O=C1CCCC(O)(c2ccc(Cl)cc2)c2cc(-c3ccncc3)sc21 (centres unmarked) [Compound 15, 4-(4-chlorophenyl)-4-hydroxy-2-pyridin-4-yl-4,5,6,7-tetrahydro-8H-cyclohepta[b]thiophen-8-one]
9 |  |  | < 100 |  |  |  | 12.4 | 96.8 | 8.6 | 47.9 | 28.5 | CC1=CC(=O)Nc2sc(-c3ccncc3)cc2C1(C)c1ccc(Cl)cc1 (centres unmarked) [Compound 17, 4-(4-chlorophenyl)-4,5-dimethyl-2-pyridin-4-yl-4,8-dihydro-7H-thieno[2,3-b]azepin-7-one]
10 |  |  | < 100 |  |  |  | 18.8 | 104 | 21.5 | 53.8 | -4.1 | O/N=C1/CCC(c2ccc(Cl)cc2)c2cc(-c3ccncc3)sc21 (centres unmarked) [Compound 18, (7Z)-4-(4-chlorophenyl)-2-pyridin-4-yl-5,6-dihydro-1-benzothiophen-7(4H)-one oxime]
11 |  |  | 100 to 1000 |  |  |  | -0.4 | 86.5 | 8.1 | 43.1 | -6.8 | O=C1CCCC(c2ccc(Cl)cc2)c2cc(-c3ccncc3)sc21 (centres unmarked) [Compound 19, 4-(4-chlorophenyl)-2-pyridin-4-yl-4,5,6,7-tetrahydro-8H-cyclohepta[b]thiophen-8-one]
12 |  |  | 100 to 1000 |  |  |  | 23.6 | 68.2 | 6.6 | 60.4 | 0.9 | Cc1nn2ccccc2c1-c1nc2c(s1)C(=O)CCC2c1ccc(Cl)cc1 (centres unmarked) [Compound 20, 4-(4-chlorophenyl)-2-(2-methylpyrazolo[1,5-a]pyridin-3-yl)-5,6-dihydro-1,3-benzothiazol-7(4H)-one]
13 |  |  | 100 to 1000 |  |  |  | 3.1 | 92.8 | 10.9 | 23 | -2 | O=C1CC(c2ccc(Cl)cc2)c2cc(-c3ccncc3)sc21 (centres unmarked) [Compound 23, 4-(4-chlorophenyl)-2-(pyridin-4-yl)-4H-cyclopenta[b]thiophen-6(5H)-one]
14 |  |  |  |  |  |  | 13.8 | 98.1 | 16.9 | 54.2 | -6.9 | O/N=C1\CCC(c2ccc(Cl)cc2)c2cc(-c3ccncc3)sc21 (centres unmarked) [Compound 24]
